Source: patent publication US9775348B2, “Composition comprising a sesterterpene and use thereof as antibiotic and antifungal adjuvant” (RODE PHARMA S.R.L., priority 2012, dated 2017)

Columns and labels:
Format in all cases: cell-based
[1] = system: Aspergillus niger, ATCC 16404; experiment: Fungal test, inhibition halo in Petri dish with central well; conditions: tests with well, 25° C.
Protocol: (§1) A study about the efficacy of the composition of the present invention to some fungi was conducted. The compositions were tested according to the MIC method. The methodology being used is herein reported.
(§2) The tested fungi strains were as follows: i) Aspergillus niger, ATCC 16404; ii) Trichoderma viride, ATCC 28020; iii) Penicillium funiculosum ATCC 9644 and iv) Chaetomium globosum, ATCC 16021.
(§3) For each strain, time by time, a culture in liquid nutrient medium such as SABORAUD DEXEROSE AGAR was made.
(§4) Freshly-made subcultures were created, and incubated until obtaining an estimated density of […]. The estimate was obtained by spectrophotometric measurement of absorption at 530 nm.
(§5) Bacteriostatic tests: The tests were performed by placing fungal culture aliquots (set forth in the tables below) in Petri dishes with a central well (1 centimeter diameter) in which the product to be tested was poured. All the plates were incubated at 25° C. The incubation time for solutions A, B, C, D, E and F was 72 hours, while for products. M1, M2 and M3 the time was 30 hours.
(§6) The results are expressed as inhibition halo diameter being measured over each plate. […] Consequently, a 0 mm diameter denotes an undetectable halo. The described values indicate the average from the minimum and maximum values of halos for each test. Values are expressed in mm of inhibition.

[2] = system: Chaetomium globosum, ATCC 16021; experiment: as above; conditions: tests with well, 25° C.
Protocol: as §1, §2, §3, §4, §5, §6

[3] = system: Trichoderma viride, ATCC 28020; experiment: as above; conditions: tests with well, 25° C.
Protocol: as §1, §2, §3, §4, §5, §6

[4] = system: Penicillium funiculosum ATCC 9644; experiment: as above; conditions: tests with well, 25° C.
Protocol: as §1, §2, §3, §4, §5, §6

[5] = system: fungi; experiment: Fungal tests, overall conclusion versus fluconazole; conditions: 0.07 mg versus 2 mg (about 1:28 ratio); alone or combined with each other
Protocol: as §1, §2, §5, §6

[6] = system: Escherichia coli ATCC 25922; experiment: Bacteriostatic test, inhibition halo in Petri dish with central well; conditions: 2 cc of a 0.7% solution equal to 35 mg, diameter does not include the 10 mm central well
Protocol: (§7) A study about the efficacy of a gascardic acid-based composition referred to as M3 was conducted against some publicly available pathogenic bacteria such as (1) Staphylococcus aureus—ATCC 25923 (190×10^6 UFC/ml) (2) Pseudomonas aeruginosa—ATCC 15442 (305×10^6 UFC/ml) and (3) Escherichia coli—ATCC 25922 (300×10^6 UFC/ml). The composition M3 was tested according to MIC method.
(§8) The method was carried out as follows. Time by time, a culture of the above-mentioned strains was prepared in a Tryptic soy Agar type growth medium. Freshly-made subcultures were prepared, and incubated until obtaining an estimated density of 1×10^6 cells per ml of culture. The assessment was obtained by spectrophotometric measurement of absorption at known wavelengths.
(§9) The bacteriostatic tests were performed by placing the bacterial culture in Petri dishes with a central well of 1 cm diameter, containing the 2 cc aliquot of composition M3. Then, the freshly-made subculture was plated over the surrounding medium. Next, the Petri dishes were placed in a thermostatic environment at 30° C. and examined after 24 and 48 ore.
(§10) The results are expressed as inhibition halo diameter measured over each Petri dish. […] Consequently, a zero mm (0 mm) diameter denotes an undetectable halo. The given average values are obtained by considering the minimum and maximum value of each halo.
(§11) According to the above-described MIC method, a test where the pathogenic bacteria (1) Staphylococcus aureus ATCC 25923 (2) Pseudomonas aeruginosa ATCC 15442 and (3) Escherichia coli ATCC 25922 were tested along using composition M5 and composition M5+M3 was conducted.

[7] = system: Pseudomonas aeruginosa ATCC 15442; experiment: as above; conditions: 2 cc of a 0.7% solution equal to 35 mg, diameter does not include the 10 mm central well
Protocol: as §7, §8, §9, §10, §11

[8] = system: Staphylococcus aureus ATCC 25923; experiment: as above; conditions: 2 cc of a 0.7% solution equal to 35 mg, diameter does not include the 10 mm central well
Protocol: as §7, §8, §9, §10, §11

[9] = incubation 72 hours, 1 cc per plate
[10] = incubation 30 hours, 1 cc (0.07 mg of compound)

## OC(Cn1cncn1)(Cn1cncn1)c1ccc(F)cc1F [Test A, Fluconazole, reference compound]
[1]; [9]
  mm of inhibition (inhibition halo diameter): 1 mm
[2]; [9]
  mm of inhibition (inhibition halo diameter): 11-17 mm
[3]; [9]
  mm of inhibition (inhibition halo diameter): 0 mm
[4]; [9]
  mm of inhibition (inhibition halo diameter): 0 mm

## Gascardic acid [Test M3]
[5]
  fungicidal activity compared with M4 (fluconazole): strong fungicidal activity than M4
[1]; [10]
  mm of inhibition (inhibition halo diameter): 15-18 mm
[2]; [10]
  mm of inhibition (inhibition halo diameter): 19-26 mm
[3]; [10]
  mm of inhibition (inhibition halo diameter): 16-27 mm
[4]; [10]
  mm of inhibition (inhibition halo diameter): 15-20 (*) mm
[6]
  Halo in mm (inhibition halo diameter): 6 mm
[7]
  Halo in mm (inhibition halo diameter): 6 mm
[8]
  Halo in mm (inhibition halo diameter): 8 mm

## C=C(C)[C@@H]1CC[C@]2(C(=O)O)CC[C@]3(C)[C@H](CC[C@@H]4[C@@]5(C)CC[C@H](O)C(C)(C)[C@@H]5CC[C@]43C)[C@@H]12 [Test M1, Betulinic acid]
[1]; [10]
  mm of inhibition (inhibition halo diameter): 15-16 mm
[2]; [10]
  mm of inhibition (inhibition halo diameter): 22-26 mm
[3]; [10]
  mm of inhibition (inhibition halo diameter): 31-34 (*) mm
[4]; [10]
  mm of inhibition (inhibition halo diameter): 12-18 (*) mm

## C[C@H]1C(=O)CC[C@@H]2[C@]1(C)CC[C@H]1[C@@]2(C)CC[C@@]2(C)[C@@H]3CC(C)(C)CC[C@]3(C)CC[C@]12C [Test M2, Fridelin]
[5]
  fungicidal activity compared with M4 (fluconazole): strong fungicidal activity than M4
[1]; [10]
  mm of inhibition (inhibition halo diameter): 3-4 mm
[2]; [10]
  mm of inhibition (inhibition halo diameter): 5-11 (*) mm
[3]; [10]
  mm of inhibition (inhibition halo diameter): 2-6 mm
[4]; [10]
  mm of inhibition (inhibition halo diameter): 1-1.5 mm
